From US11084800B2 (Achillion Pharmaceuticals, Inc., priority 2017, dated 2021) come the findings set out here.

Structures are written as SMILES. pIC50: −log10 of the molar value.

Sequence of Human Factor D (P00746 26-253): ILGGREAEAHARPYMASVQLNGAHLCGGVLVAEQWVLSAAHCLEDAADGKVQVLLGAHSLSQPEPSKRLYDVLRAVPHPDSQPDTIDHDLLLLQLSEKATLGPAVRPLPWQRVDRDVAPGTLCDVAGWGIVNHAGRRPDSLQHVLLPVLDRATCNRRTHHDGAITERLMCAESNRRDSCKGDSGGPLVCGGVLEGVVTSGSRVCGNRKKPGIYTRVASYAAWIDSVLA

The test deals with Human Factor D (Homo sapiens (Human), UniProt P00746). The experiment in a line: Human Factor D Assay. In kind it is biochemical. As to conditions: Table 6; Factor D 80 nM, substrate Z-L-Lys-SBz; read-out: IC50. Summed up:
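Serum-purified Factor D (80 nM final) preincubated 5 min at room temperature with compound in 50 mM Tris, 1 M NaCl, pH 7.5. Z-L-Lys-SBz and DTNB added at 100 μM each; A405 followed every 30 s for 30 min. IC50 from nonlinear regression of rates versus concentration.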
For `CC(=O)c1nn(CC(=O)N2[C@H](C(=O)Nc3nc(Br)ccc3C)C[C@@]3(CNC(=O)c4ccccc4F)C[C@@H]23)c2c(C)cc(-c3cnc(C)nc3)cc12` [Compound 97, (1R,3S,5R)-2-(2-(3-Acetyl-7-methyl-5-(2-methylpyrimidin-5-yl)-1H-indazol-1-yl)acetyl)-N-(6-bromo-3-methylpyridin-2-yl)-5-((2-fluorobenzamido)methyl)-2-azabicyclo[3.1.0]hexane-3-carboxamide], the pIC50 (commonly the IC50 on a negative log10 scale, so that one unit is a factor of ten) is over 6.00.
As for `COC[C@@]12C[C@@H](C(=O)Nc3nc(Br)ccc3C)N(C(=O)Cn3nc(C(C)=O)c4cc(-c5cnc(C)nc5)cc(C)c43)[C@@H]1C2` [Compound 98, (1R,3S,5S)-2-(2-(3-Acetyl-7-methyl-5-(2-methylpyrimidin-5-yl)-1H-indazol-1-yl)acetyl)-N-(6-bromo-3-methylpyridin-2-yl)-5-(methoxymethyl)-2-azabicyclo[3.1.0]hexane-3-carboxamide], the pIC50 is over 6.00.
With `COC(=O)N[C@H](C(=O)NC[C@@]12C[C@@H](C(=O)Nc3nc(Br)ccc3C)N(C(=O)Cn3nc(C(C)=O)c4cc(-c5cnc(C)nc5)cc(C)c43)[C@@H]1C2)C(C)C` [Compound 99, methyl ((S)-1-((((lR,3S,5R)-2-(2-(3-acetyl-7-methyl-5-(2-methylpyrimidin-5-yl)-1H-indazol-1-yl)acetyl)-3-((6-bromo-3-methylpyridin-2-yl)carbamoyl)-2-azabicyclo[3.1.0]hexan-5-yl)methyl)amino)-3-methyl-1-oxobutan-2-yl)carbamate], the pIC50 was over 6.00.
The figure for `CC(=O)c1nn(CC(=O)N2[C@H](C(=O)Nc3nc(Br)ccc3C)C[C@@]3(CN(C)C)C[C@@H]23)c2c(C)cc(-c3cnc(C)nc3)cc12` [Compound 100, (1R,3S,5R)-2-(2-(3-acetyl-7-methyl-5-(2-methylpyrimidin-5-yl)-1H-indazol-1-yl)acetyl)-N-(6-bromo-3-methylpyridin-2-yl)-5-((dimethylamino)methyl)-2-azabicyclo[3.1.0]hexane-3-carboxamide] is over 6.00; for `CC(=O)c1nn(CC(=O)N2[C@H](C(=O)Nc3nc(Br)ccc3C)C[C@@]3(CNS(C)(=O)=O)C[C@@H]23)c2c(C)cc(-c3cnc(C)nc3)cc12` [Compound 101, (1R,3S,5R)-2-(2-(3-Acetyl-7-methyl-5-(2-methylpyrimidin-5-yl)-1H-indazol-1-yl)acetyl)-N-(6-bromo-3-methylpyridin-2-yl)-5-(methylsulfonamidomethyl)-2-azabicyclo[3.1.0]hexane-3-carboxamide] it is over 6.00; for `CC(=O)c1nn(CC(=O)N2[C@H](C(=O)Nc3nc(Br)ccc3C)C[C@@]3(CNC(=O)CC(F)(F)F)C[C@@H]23)c2c(C)cc(-c3cnc(C)nc3)cc12` [Compound 102, (1R,3S,5R)-2-(2-(3-Acetyl-7-methyl-5-(2-methylpyrimidin-5-yl)-1H-indazol-1-yl)acetyl)-N-(6-bromo-3-methylpyridin-2-yl)-5-((3,3,3-trifluoropropanamido)methyl)-2-azabicyclo[3.1.0]hexane-3-carboxamide] it is over 6.00.
As for `CC(=O)c1nn(CC(=O)N2[C@H](C(=O)Nc3nc(Br)ccc3C)C[C@@]3(C)C[C@@H]23)c2ccc(-c3cnc(CN(C)C)nc3)cc12` [Compound 103, (1R,3S,5R)-2-(2-(3-Acetyl-5-(2-((dimethylamino)methyl)pyrimidin-5-yl)-1H-indazol-1-yl)acetyl)-N-(6-bromo-3-methylpyridin-2-yl)-5-methyl-2-azabicyclo[3.1.0]hexane-3-carboxamide], the pIC50 is over 6.00.
Regarding `CC(=O)c1nn(CC(=O)N2[C@H](C(=O)Nc3nc(Br)c(F)cc3C)C[C@@]3(C)C[C@@H]23)c2cnc(-c3cnc(C)nc3)cc12` [Compound 104, (1R,3S,5R)-2-(2-(3-Acetyl-5-(2-methylpyrimidin-5-yl)-1H-pyrazolo[3,4-c]pyridin-1-yl)acetyl)-N-(6-bromo-5-fluoro-3-methylpyridin-2-yl)-5-methyl-2-azabicyclo[3.1.0]hexane-3-carboxamide], the pIC50 was over 6.00.
